Experimental data: article PMC10895676, “Antiviral Activity of Lipophilic Nucleoside Tetraphosphate Compounds” (Journal of Medicinal Chemistry, 2024)
Read-outs that look alike come from different tables or passages of the source.

Tests used:
[1] = Hydrolysis in CEM/0 cell extracts; format: in vitro ADME; settings: human
Method: Next, TetraPPPPro-nucleotides 4–9 were incubated in human CD4^+ T-lymphocyte CEM/0 cell extracts to study their stability and identify the hydrolysis products.
CEM cells were grown in RPMI-1640-based cell culture medium to a final density of ∼3 × 10^6 cells/mL. Cells were centrifuged for 10 min at 1250 rpm at 4 °C and washed twice with cold PBS, and the pellet was resuspended at 10^8 cells/mL and sonicated (Hielscher Ultrasound Techn., 100% amplitude, 3·times for 10 s) to destroy cell integrity. Next, the resulting cell suspension was centrifuged at 10,000 rpm to remove cell debris. Finally, the supernatant was divided into aliquots and frozen at −80 °C.
6.0 mM hydrolysis solutions of compounds 4–9 were prepared from 21 μL of 50 mM DMSO stock solutions and 154 μL of DMSO. Two different samples, including 10 μL of water and 10 μL of 6.0 mM hydrolysis solution, were prepared in 2 mL Eppendorf vials. Next, 50 μL of human CEM cell extracts or 50 μL of human citrate plasma were added to the mixture, the reaction was started, and the mixture was incubated at 37 °C for different time periods. The reactions were stopped by the addition of 150 μL of MeOH. The resulting suspension was kept on ice for 5 min, followed by defrosting and centrifugation at 14,000 rpm (Heraeus, Biofuge Pico) for 22 min. The supernatants (80 or 60 μL) were directly injected into HPLC. The calculation of t1/2 was performed analogously to that for the chemical hydrolysis studies.

[2] = system: HIV-2 (ROD); test: Anti-HIV replication assay, HIV-2 (ROD) in thymidine kinase-deficient CEM/TK– cells; format: cell-based; settings: for selectivity index (SI): CC50/EC50, HIV-2 (ROD) in CEM/TK– cells; for improvement of antiviral activity as compared to the parent d4T: HIV-2, CEM/TK– cells; for EC50: read-out: CEM/TK– HIV-2 (ROD) EC50
How it was run: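 Wild-type CEM/0 or thymidine kinase-deficient CEM/TK– T-cells (~3 × 10^5 cells/mL) were infected with 100 CCID50/mL HIV-2(ROD) in the presence of compound dilutions. After 4–5 days at 37 °C, virus-induced cytopathicity and syncytium formation were scored microscopically.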

[3] = 37 °C, read-out: CEM/0 cell extracts t1/2 (converted)
[4] = Human immunodeficiency virus 2, CEM/TK– cells, mean ± SD, n = 2–3

SMILES | half-life at 0.86 mM [1, 3] | selectivity index (SI) [2] | improvement of antiviral activity as compared to the parent d4T [2] | EC50 [2, 4] | EC50 ([2]; Human immunodeficiency virus 2, CEM-TK(-)) | half-life at 0.86 mM ([1]; dephosphorylation, read-out: t1/2 in CEM/0 cell extracts)
CCCCCCCCCCCCCCCCCCOP(=O)(OCCCC)OP(=O)(O)OP(=O)(O)OP(=O)(O)OC[C@@H]1C=C[C@H](n2cc(C)c(=O)[nH]c2=O)O1 (some centres unmarked) [4d, δ-(Alkyl-C4; alkyl-C18)-d4T4P] | > 20 h | 260 | > 270 fold | 180 ± 150 nM | – | –
CCCCCCCCCCCCCCCCCCP(=O)(OCCCC)OP(=O)(O)OP(=O)(O)OP(=O)(O)OC[C@@H]1C=C[C@H](n2cc(C)c(=O)[nH]c2=O)O1 (some centres unmarked) [5a, δ-(Alkyl-C4)-δ-C-(alkyl-C18)-d4T4P] | > 20 h | – | > 1100 fold | – | 43 ± 26 nM | –
CCCCCCCCCCCCCCCCCCP(=O)(O)OP(=O)(O)OP(=O)(O)OP(=O)(O)OC[C@@H]1C=C[C@H](n2cc(C)c(=O)[nH]c2=O)O1 [compound 24, δ-C-(Alkyl-C18)-d4T4P] | > 30 h | 30 | – | 1350 ± 630 nM | – | –
CCCCCCCCCCCCCCCCCCOP(=O)(O)OP(=O)(O)OP(=O)(O)OP(=O)(O)OC[C@@H]1C=C[C@H](n2cc(C)c(=O)[nH]c2=O)O1 [compound 20, δ-(Alkyl-C18)-d4T4P] | > 8 h | >21 | – | 4600 ± 330 nM | – | –
Cc1cn([C@H]2C=C[C@@H](COP(=O)(O)OP(=O)(O)OP(=O)(O)OP(=O)(O)O)O2)c(=O)[nH]c1=O [d4T4P, 2′,3′-didehydro-2′,3′-dideoxythymidine-5′-tetraphosphate] | 0.37 h | >3 | – | 33800 ± 21300 nM | – | 0.367 h
